According to patent US8362203B2, “Non-natural peptides as models for the development of antibiotics” (priority 2009, dated 2013):
“Also recorded” adds a separate entry of the source. Marks after values point to notes of the source that are not given here. Strand notation (5' to 3'): a small letter for the sugar, then the base; units joined by * are phosphorothioate-linked, units joined directly phosphodiester-linked; [ ] holds rarer units or linkages, { } end groups; capitals alone tell only the bases. [m2G] = N2-methylguanosine (ribo); [5mC] = 5-methylcytosine; r = 2'-OH (RNA)

Legend:
[1] = UV thermal melting of helix 31 RNA hairpin constructs (van't Hoff analysis); format: physicochemical; details: for ΔG° 50: standard error est. 3% (±0.2 kcal/mol)
Description: Thermal melting studies. The absorbance versus temperature profiles were obtained on an Aviv 14DS UV-vis spectrophotometer with a five-cuvette thermoelectric controller. Microcuvettes with two different pathlengths, 0.1 and 0.2 cm (60 and 120 μL volumes, respectively), were employed. Each set of measurements was done in triplicate. The buffer used in each experiment contained 15 mM NaCl, 20 mM sodium cacodylate, and 0.5 mM Na2EDTA (pH 7.0) unless otherwise noted. Each oligomer was dissolved in a specific volume to yield an absorbance reading just below 2.0 in a 0.1 cm pathlength cuvette. The RNA concentrations were determined from the absorbance values (260 nm) at 95° C. The absorbance data were collected at […] from 0 to 95° C. with a constant heating rate of 0.5° C./min. Thermodynamic parameters were obtained from the absorbance versus temperature profiles using the MELTWIN v. 3.5 melting curve program.^1 This program performs a van't Hoff analysis, assuming a two-state model for the transition between a native and a denatured (random coil) structure of a hairpin.
Absorbance versus temperature profiles (melting curves) were obtained at pH 7.0 for all four RNA constructs. They were analyzed in terms of ΔG°37, ΔG°50, ΔH°, ΔS°, and melting temperature (Tm),^1, 2 Representative normalized UV melting curves of the modified RNAs compared to the unmodified RNA, taken in 15 mM NaCl, 20 mM sodium cacodylate, 0.5 mM Na2EDTA (pH 7.0), are shown in FIG. 11.
The curves represent an average of five sets of data at different concentrations of RNA obtained from a five-cuvette thermoelectric controller. The melting curves for the unmodified RNA (ECh31UNMOD, blue line in panels A-C) are compared to those for the modified RNAs (pink lines: (A) ECh31WT, (B) ECh31M2G, and (C) ECh31M5C). All of the melting curves were normalized at 95° C. and absorbance measurements were taken at 260 nm (see materials and methods, section 4.5).
The melting curves are biphasic for all four RNAs (FIG. 12) with transitions at 0 to 35° C. and 40 to 80° C. […] The higher melting transitions were concentration independent, consistent with unimolecular unfolding of the hairpin structure.^3 The corresponding thermodynamic parameters for the four RNAs are given in Table 2. […] The observed order of stability of the RNAs is ECh31UNMOD>ECh31M2G>ECh31M5C>ECh31WT^a A conservative estimate of the standard error for ΔG°50 is 3% (.+−.0.2 kcal/mol)^4
The RNA samples were analyzed as five different dilutions per experiment and UV melts were also performed in triplicate for each construct. AU0-AU4 represent profiles corresponding to different dilutions of each RNA taken in 15 mM NaCl, 20 mM sodium cacodylate, 0.5 mM Na2EDTA at pH 7.0. Experiments in K^+ buffer (15 mM KCl, 20 mM cacodylic acid, 20 mM Tris [basic form], 0.5 mM Na2EDTA, pH 7.0) gave similar results (Table 3, FIG. 13).
Thermal melting studies. Preliminary experiments were performed with the unmodified human analogue (HSh31UNMOD) containing an additional G-C base-pair (denoted by g-c) similar to that of the ECh31UNMOD construct (FIG. 28).
Thermal melting studies on the human unmodified helix 31 containing the altered sequence. The absorbance versus temperature profiles were obtained at pH 7.0 in low salt conditions (35 mM Na^+) for the new analogue of helix 31 (HSh31ECstem) and analyzed in terms of the melting temperature (Tm), Δ°, ΔS° and ΔG°37. The melting curve for HSH31ECSTEM (green color curve) is biphasic with transitions at 0-35 and 45-80° C. (FIG. 37). The higher melting transition is concentration independent, consistent with unimolecular unfolding of a hairpin structure.

[2] = test system: GFP translation (Escherichia coli S30 extracts); assay: Coupled in vitro transcription-translation inhibition assay (GFP fluorescence); format: biochemical; details: for inhibitory effect on coupled in vitro transcription-translation (in words): peptide 300 μM to 2 mM, GFP fluorescence 0 min to 2 h, 37° C.
Description: Peptides with high frequency in the screening against wild-type h31 were synthesized. The peptides (DIRTQRE (SEQ ID NO: 6), CVRPFAL (SEQ ID NO: 4), FVRPFAL (SEQ ID NO: 7), TLWDLIP (SEQ ID NO: 3) and TYLPWPA (SEQ ID NO: 2)), were synthesized and their sequences were determined from the phage display experiments. The inhibitory effects of these peptides on cellular processes were determined by in vitro coupled transcription-translation inhibition assay. The PURExpress™ in vitro protein synthesis kit # E6800S from New England Biolabs (NEB) was used for this purpose. This kit contains all of the necessary components for the transcription and translation, except for the DNA template. The amounts of reagents from the kit were added according to the NEB manual. We used a DNA template for GFP (pRSETEmGFP plasmid) at a concentration of 10 μg/ml in a 15 μl of reaction volume. Different concentrations of peptides were added, ranging from 300 μM to 2 mM. The DNA template was added only after mixing of the peptides or streptomycin so that they can bind to their target region. For the control, streptomycin was added at a final concentration of 300 μM. The reaction was incubated in 384-well, Costar, clear-well, black plates and in situ incubated at 37° C. in the fluorometer. The amount of GFP translation was monitored at different intervals of time from 0 min to 2 h by fluorescence (excitation at 487 nm, emission at 509 nm) using a Gemini XPS microplate spectrofluorometer, (Molecular Devices).
A cell-free translation assay was used to test the inhibitory effects of the peptides on protein synthesis. The pRSETEmGFP plasmid that was used as template has an EmGFP gene under control of the T7 promoter (FIG. 48). Upon transcription with T7 polymerase, EmGFP mRNA was formed and undergoes translation by ribosomes to produce the green fluorescent protein (GFP). The degree of inhibition on transcription and translation due to the presence of peptide could be determined by measuring the level of GFP fluorescence. Escherichia coli S30 extracts were used, which contained all of the necessary factors and supplements for translation. The rate of GFP translation in the presence or absence of peptide was measured at different time intervals.

[3] = Tables 3-5, NaCl buffer (15 mM NaCl, 20 mM sodium cacodylate, 0.5 mM EDTA, pH 7.0)
[4] = 15 mM NaCl, 20 mM sodium cacodylate, 0.5 mM Na2EDTA, pH 7.0
[5] = Table 2, 15 mM NaCl, 20 mM sodium cacodylate, 0.5 mM Na2EDTA, pH 7.0
[6] = KCl buffer (15 mM KCl, 20 mM cacodylic acid, 20 mM Tris, 0.5 mM Na2EDTA, pH 7.0)

Row | Molecule | Tm [1, 3] | ΔG°37 [1, 3] | ΔH° [1, 3] | ΔS° [1, 3] | inhibitory effect on coupled in vitro transcription-translation (in words) [2] | ΔG° 50 [1, 4] | Tm [1, 5] | ΔG°37 [1, 5] | ΔH° [1, 5] | ΔS° [1, 5] | further results
1 | HSh31UNMOD: unmodified human helix 31 RNA analogue with additional G-C base-pair (GUUUGACUCAACACGGGC; unmodified RNA) | 44 °C | -0.6 kcal/mol | -29.4 ± 1.6 kcal/mol | −92.8 ± 5.4 cal/K · mol |  |  |  |  |  |  | 
2 | [H]/N=C(/N)N[C@H]1[C@H](O)[C@@H](O)[C@H](O[C@@H]2O[C@@H](C)[C@](O)(C=O)[C@H]2O[C@@H]2O[C@@H](CO)[C@H](O)[C@@H](O)[C@@H]2NC)[C@@H](N/C(N)=N\[H])[C@@H]1O [Streptomycin, reference compound] |  |  |  |  |  |  |  |  |  |  | GFP translation with positive control ([2]; 300 μM): no GFP translation was observed
3 | DIRTQRE [compound 18, 7-mer peptide selected by phage display against helix 31 RNA] |  |  |  |  | did not inhibit transcription or translation even up to 2 mM; also recorded: least inhibitory effect |  |  |  |  |  | 
4 | ECh31M2G: 18-nt helix 31 RNA hairpin of E. coli 16S rRNA with m2G966 (rGrUrUrCrGrArUr[m2G]rCrArArCrGrCrGrArArC) |  |  |  |  |  | −0.7^a kcal/mol | 56 °C | -2.4 ± 0.1 kcal/mol | -41.9 ± 1.1 kcal/mol | −127.5 ± 3.2 cal/K · mol | 
5 | TLWDLIP [compound 14, 7-mer peptide selected by phage display against helix 31 RNA] |  |  |  |  | greater inhibitory effects on in vitro protein synthesis than other peptides |  |  |  |  |  | 
6 | ECh31M5C: 18-nt helix 31 RNA hairpin of E. coli 16S rRNA with m5C967 (GUUCGAUGCAACGCGAAC; RNA, [5mC] at 9, all phosphodiester, methylation of C not given here) |  |  |  |  |  | −0.6^a kcal/mol | 55 °C | -2.2 ± 0.1 kcal/mol | -40.5 ± 0.9 kcal/mol | −123.3 ± 3.1 cal/K · mol | 
7 | FVRPFAL [compound 16, 7-mer peptide selected by phage display against helix 31 RNA] |  |  |  |  | best inhibitory effects; also recorded: strong inhibitory effects |  |  |  |  |  | 
8 | ECh31WT: doubly modified (m2G966, m5C967) h31 analogue, wild-type sequence of E. coli 16S rRNA helix 31 (GUUCGAUGCAACGCGAAC; RNA, [m2G] at 8, [5mC] at 9, all phosphodiester, methylation of C not given here) | 55.5 °C | -2.10 ± 0.07 kcal/mol | -37.26 ± 1.2 kcal/mol | −113.37 ± 3.6 cal/K · mol |  | −0.5^a kcal/mol | 56 °C | -2.1 ± 0.1 kcal/mol | -37.5 ± 2.2 kcal/mol | −114.4 ± 5.8 cal/K · mol | Tm [1, 6]: 54.7 °C; ΔG°37 [1, 6]: -2.13 ± 0.03 kcal/mol; ΔH° [1, 6]: -39.37 ± 1.2 kcal/mol; ΔS° [1, 6]: −120.08 ± 3.8 cal/K · mol
9 | ECh31UNMOD: 18-nt unmodified RNA hairpin representing helix 31 (U960-A975) of E. coli 16S rRNA (GUUCGAUGCAACGCGAAC; unmodified RNA) | 57 °C | -2.6 ± 0.1 kcal/mol | -44.1 ± 1.0 kcal/mol | −133.8 ± 3.0 cal/K · mol |  | −0.9^a kcal/mol | 57 °C | -2.6 ± 0.1 kcal/mol | -44.1 ± 1.0 kcal/mol | −133.8 ± 3.0 cal/K · mol | 
10 | CVRPFAL [compound 15, 7-mer peptide selected by phage display against helix 31 RNA] |  |  |  |  | greater inhibitory effects on in vitro protein synthesis than other peptides |  |  |  |  |  | inhibitory effect on coupled in vitro transcription-translation (in words) ([2]; listed as CVRPFAL): best inhibitory effects; also recorded: strong inhibitory effects
